The target of assay [1] is steroid 5α-reductase. To be noted: cited from earlier work; for Ki: read-out: K1; for reversibility of inhibition (Reversible / Irreversible): printed in parentheses beside K1; for mode of inhibition (in words): literature statement in text.
For assay [2], the target named is T1, human steroid 5α-reductase (Homo sapiens, UniProt P31213).
T1 construct: using tissue from hyperplastic human prostates; from tissue; host or cells: frozen human prostates (hyperplastic), washed particulate fraction from differential centrifugation
T1 sequence (P31213 1-254): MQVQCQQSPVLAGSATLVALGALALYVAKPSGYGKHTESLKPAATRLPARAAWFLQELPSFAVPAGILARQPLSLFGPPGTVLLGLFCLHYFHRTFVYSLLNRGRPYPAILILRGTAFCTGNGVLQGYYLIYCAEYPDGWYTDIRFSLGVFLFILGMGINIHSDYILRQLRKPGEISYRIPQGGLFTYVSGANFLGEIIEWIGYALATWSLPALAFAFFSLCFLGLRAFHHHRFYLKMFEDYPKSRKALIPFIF
In words: Inhibition of human prostatic steroid 5α-reductase ([14C]-testosterone conversion, Dixon analysis). It is filed as biochemical. The method, then:
In determining potency in inhibiting the human enzyme, the following procedure was employed:
The resulting pellet was suspended in 20 mM potassium phosphate buffer, pH 6.5, containing 20% glycerol, 1 mM dithiothreitol, and 50 μM NADPH. The suspended particulate solution was stored at -80° C.
To each tube was added buffer, 20 μl of 10 mM NADPH and an aliquot of prostatic particulate solution to a final volume of 1.0 ml of 50 mM sodium citrate, pH 5.0. After incubating the solution at 37° C. for 20 to 30 minutes the reaction was quenched by the addition of 4 ml ethyl acetate and 0.25 μmol each of testosterone, dihydrotestosterone, androstanediol, and androstanedione as carriers. […] The radiochemical content in the bands of the substrate and the products was determined with a BIOSCAN Imaging Scanner (Bioscan, Inc., Washington, D.C.). The percent of recovered radiolabel converted to product was calculated, from which enzyme activity was determined. […]
The experimentally obtained data was computer fitted to a linear function by plotting the reciprocal of the enzyme activity (1/velocity) against the variable inhibitor concentration (Dixon, M. (1953), Biochem. J., 55, 170). Assuming that the steroidal inhibitor is a competitive inhibitor against testosterone, a value for the inhibition constant (Ki) can be calculated from equation 1: […]

Setting [3] is: 5α-reductase inhibitors, literature reference given per compound.

Read-outs that look alike come from different tables or passages of the source.

In the case of `C[C@]12CC[C@H]3[C@@H](CCC4=CC(=O)CC[C@@]43C)[C@@H]1CC[C@@H]2C(=O)O` [(1)], the Ki in assay [1] (setting [3]) was 1100 nM. In assay [1], the “reversibility of inhibition (Reversible / Irreversible)” value was “Reversible”.

For the compound `CC(=O)C1CCC2C3CC=C=CC(=O)CCC(=O)C3CCC12C` (centres unmarked) [(2)], in assay [1] (setting [3]), the Ki is 1000 nM. Also, in assay [1], the “reversibility of inhibition (Reversible / Irreversible)” value is on record as “Irreversible”.

On to `CC(CO)[C@H]1CC[C@H]2[C@@H]3CC[C@H]4C(=[N+]=[N-])C(=O)CC[C@]4(C)[C@H]3CC[C@]12C` (some centres unmarked) [(3)], for which, in assay [1], the “mode of inhibition (in words)” value is “potent, time-dependent inhibitor of steroid 5α-reductase” and the “reversibility of inhibition (Reversible / Irreversible)” value was “Irreversible”. The Ki in assay [1] (unit inferred, Blohm, et al., 1980) is 35 nM.

Take `CCN(CC)C(=O)[C@H]1CC[C@H]2[C@@H]3CC[C@H]4N(C)C(=O)CC[C@]4(C)[C@H]3CC[C@]12C` [(4)]: the Ki in assay [1] (setting [3]) is 5 nM. Also, in assay [1], the “reversibility of inhibition (Reversible / Irreversible)” value is “Reversible”.

Regarding `C=C1C[C@@H]2[C@H](CC[C@@]3(C)[C@H]2CC[C@]3(OC(C)=O)C(C)=O)[C@@]2(C)CCC(=O)C=C12` [(5)], the Ki in assay [1] (setting [3]) was 1250 nM. In assay [1], the “mode of inhibition (in words)” value is reported as “time dependent inactivator of steroid 5α-reductase” and the “reversibility of inhibition (Reversible / Irreversible)” value is on record as “Irreversible”.

Regarding `CC(C)N(C(=O)[C@H]1CC[C@H]2[C@@H]3CC=C4C=C(P(=O)(O)O)CC[C@]4(C)[C@H]3CC[C@]12C)C(C)C` [Example 1, 17β-(N,N-diisopropylcarboxamide)-androst-3,5-diene-3phosphonic acid], the Ki in assay [2] (hyperplastic human prostate particulate, pH 5.0, 37° C., 20 to 30 minutes, competitive inhibition against testosterone assumed, read-out: Ki (inhibition constant of human prostatic steroid 5α-reductase)) lay in the range of 15 to 40 nM.

In turn, `CC(C)N(C(=O)[C@H]1CC[C@H]2[C@@H]3CCC4=CC(P(=O)(O)O)=CC[C@]4(C)[C@H]3CC[C@]12C)C(C)C` [Example 30, 17β-(N,N-diisopropylcarboxamide)-androst-2,4-diene-3-phosphonic acid] came in with a Ki in assay [2] of 160 nM.
